According to patent publication US20230293535A1, “ERBB/BTK INHIBITORS” (Dizal (Jiangsu) Pharmaceutical Co., Ltd., priority 2018, published 2023):
Read-outs that look alike come from different tables or passages of the source.

Assays:
Format in all cases: cell-based
Ba/F3 EGFR NPH ins cells = test: Cell proliferation, Ba/F3 EGFR NPH ins (CellTiter-Glo, 72 h); details: Ba/F3 EGFR, 72 h;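 also: IL3-independent cells carrying constitutively phosphorylated EGFR, compound dilution series, viable cells quantified by ATP luminescence, growth relative to DMSO wells after subtracting pre-dosing (day 0) baseline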
TMD-8 cells = test: BTK (wt) cell proliferation, TMD-8 (CellTiter-Glo, 72 h); details: Homo sapiens, TMD8, 72 h, read-out: BTK WT TMD-8 GI50;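 also: viable cells quantified by ATP-based luminescence, proliferation expressed as percent of DMSO control after subtracting a time-zero baseline plate read at dosing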
WT EGFR cell line A-431 = test: Cell proliferation, WT EGFR A431 (CellTiter-Glo, 72 h); details: Homo sapiens, A-431, 72 h;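 also: proliferation from a luminescent ATP viability signal, expressed as 100 × (treated minus time-zero plate) over (DMSO control minus time-zero plate), cells grown with 10% FBS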
Ba/F3 EGFR ASV ins cells = test: Cell proliferation, Ba/F3 EGFR ASV ins (CellTiter-Glo, 72 h); details: Ba/F3 EGFR, 72 h;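 also: IL3-independent Ba/F3 cells transduced with EGFR V769_D770insASV, cellular ATP luminescence after compound exposure, growth relative to DMSO control with the day-0 baseline reading subtracted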
OCI-LY-10 cells = test: BTK (wt) cell proliferation, OCI-LY-10 (CellTiter-Glo, 72 h); details: Homo sapiens, OCI-Ly10, 72 h, read-out: BTK WT OCI-LY-10 GI50;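 also: viable cells quantified via cellular ATP luminescence, proliferation given as percent of DMSO control after subtracting a duplicate plate read at time of dosing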
[1] = system: Her2 exon 20 insertion YVMA transduced NIH-3T3 cell line; test: Cell proliferation, Her2 YVMAins NIH-3T3 (CellTiter-Glo, 72 h); details: Mus musculus, NIH3T3, 72 h;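 also: viable cells quantified by ATP luminescence, growth over a day-zero baseline plate expressed as percent of DMSO control growth, compound dilution series in 10% FBS medium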
DB cells = test: BTK (wt) cell proliferation, DB (CellTiter-Glo, 72 h); details: Homo sapiens, DB, read-out: Non-BCR activated DB GI50;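 also: DB cells in 384-well plates given a dilution series of compound, viable cells read by ATP luminescence, growth expressed versus DMSO control after subtracting a time-zero plate reading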
[2] = system: NCI-H1975 EGFR L858R/T790M cells; test: Cell proliferation, NCI-H1975 EGFR L858R/T790M (CellTiter-Glo, 72 h); details: Homo sapiens, NCI-H1975, 72 h;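 also: viable cells quantified by luciferase-based ATP luminescence, proliferation expressed relative to DMSO-treated wells (100%) after subtracting a parallel plate read at the time of dosing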
Ri-1 cells = test: BTK (wt) cell proliferation, Ri-1 (CellTiter-Glo, 72 h); details: Ri-1, 72 h, read-out: BTK WT Ri-1 GI50;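 also: viable cells quantified as cellular ATP luminescence, proliferation normalized to a time-zero plate and the DMSO control, compounds tested across a dilution series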
[3] = molecular target: T1, human EGFR exon 20 H773_V774insNPH (Homo sapiens, UniProt P00533, INS773NPH); test: EGFR Exon20 NPH insertion cellular phosphorylation inhibition (MSD pEGFR Y1068/total EGFR); details: Ba/F3 EGFR NPH ins cells, 4 h compound, p-EGFR(Y1068)/total EGFR;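 also: IL3-independent Ba/F3 cells with constitutively phosphorylated EGFR, compound exposure at 37 °C under 5% CO2, electrochemiluminescent MSD measurement of the p-EGFR to total EGFR ratio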
T1 construct: host or cells: Ba/F3
T1 sequence (P00533 with tags, fused parts or gaps INS773NPH): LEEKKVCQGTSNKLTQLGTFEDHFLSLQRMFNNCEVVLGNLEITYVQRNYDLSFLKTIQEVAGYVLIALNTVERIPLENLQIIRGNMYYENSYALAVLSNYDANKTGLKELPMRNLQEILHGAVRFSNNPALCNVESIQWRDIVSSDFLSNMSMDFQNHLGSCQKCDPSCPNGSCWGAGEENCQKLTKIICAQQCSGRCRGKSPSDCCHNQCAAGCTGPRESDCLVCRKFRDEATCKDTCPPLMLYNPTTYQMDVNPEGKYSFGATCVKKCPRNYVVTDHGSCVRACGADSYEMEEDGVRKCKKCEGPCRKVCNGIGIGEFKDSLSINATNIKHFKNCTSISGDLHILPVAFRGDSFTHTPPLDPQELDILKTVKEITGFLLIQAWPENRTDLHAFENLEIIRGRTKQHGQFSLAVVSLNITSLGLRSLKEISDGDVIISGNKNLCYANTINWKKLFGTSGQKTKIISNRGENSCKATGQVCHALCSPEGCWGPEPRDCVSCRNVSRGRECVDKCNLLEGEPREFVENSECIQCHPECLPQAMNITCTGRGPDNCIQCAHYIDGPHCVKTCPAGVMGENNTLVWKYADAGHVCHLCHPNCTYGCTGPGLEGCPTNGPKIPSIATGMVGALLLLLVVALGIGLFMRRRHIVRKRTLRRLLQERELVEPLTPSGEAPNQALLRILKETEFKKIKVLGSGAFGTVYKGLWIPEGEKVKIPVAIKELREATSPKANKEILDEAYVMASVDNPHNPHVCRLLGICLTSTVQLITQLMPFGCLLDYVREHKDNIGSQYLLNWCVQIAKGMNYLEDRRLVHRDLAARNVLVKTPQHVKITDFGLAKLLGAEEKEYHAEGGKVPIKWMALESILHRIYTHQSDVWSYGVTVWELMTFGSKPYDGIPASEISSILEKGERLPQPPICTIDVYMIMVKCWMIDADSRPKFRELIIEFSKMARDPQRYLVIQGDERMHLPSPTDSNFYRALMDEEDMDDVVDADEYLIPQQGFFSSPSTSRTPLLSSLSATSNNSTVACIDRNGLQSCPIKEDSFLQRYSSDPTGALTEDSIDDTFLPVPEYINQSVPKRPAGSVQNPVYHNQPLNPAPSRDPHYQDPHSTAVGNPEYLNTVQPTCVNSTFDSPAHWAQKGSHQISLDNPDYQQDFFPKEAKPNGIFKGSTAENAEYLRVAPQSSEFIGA
Experimental: (§1) One day before the test, WT or mutant cells were seeded in 96 well plates at appropriate concentrations with corresponding growth media supplemented with 1% FBS, and incubated overnight. The next day, tested compounds at a series of concentrations were added into each individual well of the plates, and the plates were incubated for 4 h at 37° C. with 5% CO2.
The EGFR (Y1068) phosphorylation level (activity) of cells in each well were then measured with MSD kit named “MULTI-SPOT®96 4-Spot HB Prototype EGFR Triplex [sequence]: pEGFR(Tyr1068),pEGFR(Tyr1173), Total EGFR” according to the manufacturer’s instruction (MESO SCALE DISCOVERY, Cat# N45ZB-1). The assay is an electrochemiluminescent method for determining both phosphorylated and total EGFR of cells with an MSD SECTOR® Imager and the ratio of p-EGFR/total EGFR can be generated by the machine.

[4] = molecular target: T2, human Her2 exon 20 insertion mutation YVMA (Homo sapiens, UniProt P04626, INS775YVMA); test: Her2 Exon 20 YVMA insertion cellular phosphorylation inhibition (MSD p-Her2 Y1248/total Her2); details: Her2 YVMAins cells, 4 h compound;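 also: lentivirally transduced NIH-3T3 cells in 1% FBS medium, electrochemiluminescent MSD read-out, graded compound concentrations at 37 °C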
T2 construct: expressed in transfected cells; host or cells: NIH-3T3, lentiviral transduction, puromycin selection
T2 sequence (P04626 with tags, fused parts or gaps INS775YVMA): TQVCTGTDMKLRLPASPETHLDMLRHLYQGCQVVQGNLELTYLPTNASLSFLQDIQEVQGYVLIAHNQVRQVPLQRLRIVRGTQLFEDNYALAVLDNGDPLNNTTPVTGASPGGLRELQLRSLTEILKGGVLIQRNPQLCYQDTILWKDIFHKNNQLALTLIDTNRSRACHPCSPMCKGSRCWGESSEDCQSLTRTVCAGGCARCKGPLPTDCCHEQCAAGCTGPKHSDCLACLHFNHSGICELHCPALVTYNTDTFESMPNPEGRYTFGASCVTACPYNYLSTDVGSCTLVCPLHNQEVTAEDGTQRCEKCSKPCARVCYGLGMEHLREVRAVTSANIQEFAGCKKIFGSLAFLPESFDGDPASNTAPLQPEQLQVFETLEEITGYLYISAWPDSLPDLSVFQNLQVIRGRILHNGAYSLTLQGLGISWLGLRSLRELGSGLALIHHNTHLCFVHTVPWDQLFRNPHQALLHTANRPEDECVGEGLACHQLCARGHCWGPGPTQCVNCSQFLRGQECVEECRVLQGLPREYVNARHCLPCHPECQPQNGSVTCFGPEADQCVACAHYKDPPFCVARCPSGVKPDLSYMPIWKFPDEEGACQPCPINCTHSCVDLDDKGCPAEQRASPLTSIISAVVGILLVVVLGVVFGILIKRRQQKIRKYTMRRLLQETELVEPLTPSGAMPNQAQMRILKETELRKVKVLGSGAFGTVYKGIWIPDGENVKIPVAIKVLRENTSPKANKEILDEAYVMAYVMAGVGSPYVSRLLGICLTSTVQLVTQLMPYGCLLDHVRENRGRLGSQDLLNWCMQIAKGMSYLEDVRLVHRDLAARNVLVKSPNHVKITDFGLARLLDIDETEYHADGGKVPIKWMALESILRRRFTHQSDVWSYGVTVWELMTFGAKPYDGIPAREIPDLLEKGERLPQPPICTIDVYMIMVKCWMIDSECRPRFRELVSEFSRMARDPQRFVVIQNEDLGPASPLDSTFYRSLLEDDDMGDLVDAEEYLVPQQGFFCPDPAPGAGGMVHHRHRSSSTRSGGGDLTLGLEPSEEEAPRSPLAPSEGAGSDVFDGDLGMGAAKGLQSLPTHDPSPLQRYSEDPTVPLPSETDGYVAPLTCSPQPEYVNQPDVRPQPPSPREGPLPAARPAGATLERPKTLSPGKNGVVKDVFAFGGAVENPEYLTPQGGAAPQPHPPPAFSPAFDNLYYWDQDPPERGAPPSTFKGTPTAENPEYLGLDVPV
Experimental: The resulting cell line expressed phosphorylated Her2 protein and its proliferation depended on the mutation gene, which could be used for in vitro PD and anti-proliferation assays.
as §1
The EGFR (Y1068) phosphorylation level (activity) of cells in each well were then measured with MSD kit named “MULTI-SPOT®96 4-Spot HB Prototype EGFR Triplex [sequence]: pEGFR(Tyr1068),pEGFR(Tyr1173), Total EGFR” according to the manufacturer’s instruction (MESO SCALE DISCOVERY, Cat# N45ZB-1). The assay is an electrochemiluminescent method for determining both phosphorylated and total EGFR of cells with an MSD SECTOR® Imager and the ratio of p-EGFR/total EGFR can be generated by the machine. The Her2 (Y1248) phosphorylation level (activity) of cells in each well were measured with MSD Kit named “Phospho-ErbB2 (Tyr1248) Assay Whole Cell Lysate Kit” according to the manufacturer’s instruction (MESO SCALE DISCOVERY, Cat# K151CLD-3). The assay is an electrochemiluminescent method (MESO SCALE DISCOVERY) for determining both phosphorylated and total Her2 of cells with an MSD SECTOR® Imager and then the ratio of p-Her2/total Her2 can be generated by the machine.

[5] = molecular target: T3, human EGFR exon 20 V769_D770insASV (Homo sapiens, UniProt P00533, INS769ASV); test: EGFR Exon20 ASV insertion cellular phosphorylation inhibition (MSD pEGFR Y1068/total EGFR); details: Ba/F3 EGFR ASV ins cells, 4 h compound, p-EGFR(Y1068)/total EGFR;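 also: electrochemiluminescent readout on an MSD SECTOR Imager, IL3-independent transduced cells in medium with 1% FBS, compound concentration series at 37 °C and 5% CO2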
T3 construct: expressed in transfected cells; host or cells: Ba/F3 (DSMZ ACC-300), lentiviral transduction, puromycin selection, IL3 depletion
T3 sequence (P00533 with tags, fused parts or gaps INS769ASV): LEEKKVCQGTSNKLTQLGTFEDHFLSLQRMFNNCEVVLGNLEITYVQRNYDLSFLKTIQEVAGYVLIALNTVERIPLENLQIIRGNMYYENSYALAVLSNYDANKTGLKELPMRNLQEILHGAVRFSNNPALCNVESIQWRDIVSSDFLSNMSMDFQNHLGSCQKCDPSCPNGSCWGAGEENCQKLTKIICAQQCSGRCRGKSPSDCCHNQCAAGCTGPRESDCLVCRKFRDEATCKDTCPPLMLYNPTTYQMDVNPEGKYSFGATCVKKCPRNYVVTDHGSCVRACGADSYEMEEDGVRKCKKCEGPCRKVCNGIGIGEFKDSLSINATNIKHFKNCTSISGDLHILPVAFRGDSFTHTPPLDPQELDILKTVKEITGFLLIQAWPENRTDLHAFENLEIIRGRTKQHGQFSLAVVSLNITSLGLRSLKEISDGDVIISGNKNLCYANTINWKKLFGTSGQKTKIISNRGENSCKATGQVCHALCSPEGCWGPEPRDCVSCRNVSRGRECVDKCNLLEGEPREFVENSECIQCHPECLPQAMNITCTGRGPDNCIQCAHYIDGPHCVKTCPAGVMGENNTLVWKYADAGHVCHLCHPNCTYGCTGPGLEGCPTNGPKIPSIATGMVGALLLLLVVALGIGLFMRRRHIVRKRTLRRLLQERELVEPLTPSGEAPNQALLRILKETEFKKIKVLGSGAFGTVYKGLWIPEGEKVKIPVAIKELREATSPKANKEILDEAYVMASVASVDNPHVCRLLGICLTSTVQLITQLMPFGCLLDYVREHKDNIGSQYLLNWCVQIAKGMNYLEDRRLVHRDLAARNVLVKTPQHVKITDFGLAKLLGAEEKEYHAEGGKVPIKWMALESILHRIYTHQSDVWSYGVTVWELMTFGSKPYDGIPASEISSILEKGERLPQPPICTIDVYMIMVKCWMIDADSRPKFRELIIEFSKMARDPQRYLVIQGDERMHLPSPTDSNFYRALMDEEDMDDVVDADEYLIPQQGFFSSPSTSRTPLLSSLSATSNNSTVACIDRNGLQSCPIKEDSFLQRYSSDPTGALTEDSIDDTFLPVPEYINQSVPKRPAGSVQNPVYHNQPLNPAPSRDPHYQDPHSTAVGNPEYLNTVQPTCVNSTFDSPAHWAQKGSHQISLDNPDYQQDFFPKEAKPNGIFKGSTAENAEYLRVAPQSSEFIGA

[6] = read-out: EGFR Exon20 NPH insertion GI50 (nM)
[7] = read-out: EGFR WT A431 GI50 (nM)
[8] = read-out: EGFR Exon20 ASV insertion GI50 (nM)
[9] = read-out: Her2 Exon 20 YVMA insertion GI50 (nM)
[10] = read-out: EGFR L858R and T790M mutation GI50 (nM)
[11] = Ba/F3 EGFR NPH ins, 72 h proliferation, read-out: EGFR Exon20 NPH insertion GI50
[12] = TMD-8 cells, 72 h, CellTiter-Glo
[13] = A431, 72 h proliferation, read-out: EGFR WT A431 GI50
[14] = Ba/F3 EGFR ASV ins, 72 h proliferation, read-out: EGFR Exon20 ASV insertion GI50
[15] = OCI-LY-10 cells, 72 h, CellTiter-Glo
[16] = Her2 YVMAins cells, 72 h proliferation, read-out: Her2 Exon 20 YVMA insertion GI50
[17] = NCI-H1975, 72 h proliferation, read-out: EGFR L858R and T790M mutation GI50
[18] = Ri-1 cells, 72 h, CellTiter-Glo

SMILES	GI50 (Ba/F3 EGFR NPH ins cells; [11])	GI50 (TMD-8 cells; [12])	GI50 (WT EGFR cell line A-431; [13])	GI50 (Ba/F3 EGFR ASV ins cells; [14])	GI50 (OCI-LY-10 cells; [15])	IC50 [3]	GI50 [1, 16]	IC50 [4]	GI50 (DB cells; DB cells, CellTiter-Glo)	GI50 [2, 17]	GI50 (Ri-1 cells; [18])	IC50 [5]	other results
C=CC(=O)Nc1cc(Nc2nccc(-c3cn(C)c4ccccc34)n2)c(OC)cc1N(C)CCN(C)C [AZD9291, osimertinib, reference compound]	–	–	–	–	–	–	–	–	–	–	–	–	GI50 (Ba/F3 EGFR NPH ins cells; [6]): 177 nM; GI50 (TMD-8 cells): 1090 nM; GI50 (WT EGFR cell line A-431; [7]): 43.7 nM; GI50 (Ba/F3 EGFR ASV ins cells; [8]): 207 nM; GI50 (OCI-LY-10 cells): 1040 nM; GI50 [1, 9]: 294 nM; GI50 (DB cells): 1020 nM; GI50 [2, 10]: 14.5 nM; GI50 (Ri-1 cells): 2050 nM
CN(C)C/C=C/C(=O)Nc1cc2c(Nc3ccc(F)c(Cl)c3)ncnc2cc1O[C@H]1CCOC1 [Afatinib, reference compound]	–	–	–	–	–	–	–	–	–	–	–	–	GI50 (TMD-8 cells): 1160 nM; GI50 (OCI-LY-10 cells): 1040 nM; GI50 [1, 9]: 17.8 nM; GI50 (DB cells): 657 nM; GI50 (Ri-1 cells): 1030 nM
C=CC(=O)Nc1cc(Nc2ncnc(Nc3cnc(C)cc3C(C)(C)O)n2)c(OC)cc1N(C)CCN(C)C [Compound 6, N-(2-((2-(dimethylamino)ethyl)(methyl)amino)-5-(4-(4-(2-hydroxypropan-2-yl)-6-methylpyridin-3-ylamino)-1,3,5-triazin-2-ylamino)-4-methoxyphenyl) acrylamide]	625 nM	335 nM	64.7 nM	250 nM	210 nM	381 nM	534 nM	97.3 nM	> 3000 nM	93.7 nM	289 nM	191 nM	–
C=CC(=O)Nc1cc(Nc2ncnc(Nc3ccc(C)nc3C(C)(C)O)n2)c(OC)cc1N(C)CCN(C)C [Compound 7, N-(2-((2-(dimethylamino)ethyl)(methyl)amino)-5-(4-(2-(2-hydroxypropan-2-yl)-6-methylpyridin-3-ylamino)-1,3,5-triazin-2-ylamino)-4-methoxyphenyl) acrylamide]	212 nM	188 nM	37.9 nM	145 nM	130 nM	46.6 nM	161 nM	19.7 nM	> 3000 nM	25 nM	> 3000 nM	40.5 nM	–
C=CC(=O)Nc1cc(Nc2ncnc(Nc3ccccc3C3(O)COC3)n2)c(OC)cc1N(C)CCN(C)C [Compound 10, N-(2-((2-(dimethylamino)ethyl)(methyl)amino)-5-(4-(2-(3-hydroxyoxetan-3-yl)phenylamino)-1,3,5-triazin-2-ylamino)-4-methoxyphenyl)acrylamide]	189 nM	> 3000 nM	79.4 nM	198 nM	> 3000 nM	119 nM	274 nM	231 nM	> 3000 nM	76.3 nM	> 3000 nM	73.4 nM	–
C=CC(=O)Nc1cc(Nc2ncnc(Nc3ccc(C(F)(F)F)cc3C(C)(C)O)n2)c(OC)cc1N(C)CCN(C)C [Compound 13, N-(2-((2-(dimethylamino)ethyl)(methyl)amino)-5-(4-(2-(2-hydroxypropan-2-yl)-4-(trifluoromethyl)phenylamino)-1,3,5-triazin-2-ylamino)-4-methoxyphenyl)acrylamide]	76.5 nM	56.3 nM	22.5 nM	53.3 nM	54.5 nM	40.1 nM	156 nM	36.4 nM	> 3000 nM	15.3 nM	120 nM	22.9 nM	–
C=CC(=O)Nc1cc(Nc2ncnc(Nc3cc(F)c(F)cc3C(C)(C)O)n2)c(OC)cc1N(C)CCN1CCCCC1 [Compound 24]	142 nM	107 nM	55.5 nM	101 nM	324 nM	65 nM	303 nM	49 nM	> 3000 nM	23 nM	415 nM	30 nM	–
C=CC(=O)Nc1cc(Nc2ncc(Cl)c(Nc3cc(Cl)c(F)cc3C(C)(C)O)n2)c(OC)cc1N(C)CCN(C)C [Compound 78, N-(5-(5-chloro-4-(5-chloro-4-fluoro-2-(2-hydroxypropan-2-yl)phenylamino)pyrimidin-2-ylamino)-2-((2-(dimethylamino)ethyl)(methyl)amino)-4-methoxyphenyl)acrylamide]	60 nM	10.3 nM	21.5 nM	35.7 nM	6.2 nM	–	49.2 nM	19.7 nM	> 3000 nM	1.4 nM	77.8 nM	–	–
Cc1cc(C(=O)Nc2nc3cccc(Cl)c3n2[C@@H]2CCCCN(C(=O)/C=C/CN(C)C)C2)ccn1 [EGF816, reference compound]	491 nM	166 nM	265 nM	502 nM	235 nM	–	242 nM	116 nM	> 3000 nM	42.5 nM	897 nM	–	–
CCOc1cc2ncc(C#N)c(Nc3ccc(OCc4ccccn4)c(Cl)c3)c2cc1NC(=O)/C=C/CN(C)C [Neratinib, reference compound]	–	–	–	–	–	–	–	–	–	–	–	–	GI50 (Ba/F3 EGFR NPH ins cells; [6]): 700 nM; GI50 (WT EGFR cell line A-431; [7]): 15.9 nM; GI50 (Ba/F3 EGFR ASV ins cells; [8]): 88 nM; GI50 [1, 9]: 5.2 nM; GI50 [2, 10]: 110 nM
C=CC(=O)N1CCC(Oc2cc3c(Nc4ccc(Cl)c(Cl)c4F)ncnc3cc2OC)CC1 [Poziotinib, reference compound]	7.2 nM	2410 nM	0.5 nM	4.1 nM	1000 nM	–	4.7 nM	0.8 nM	> 3000 nM	19.4 nM	1230 nM	–	–
